Experimental data: PubChem BioAssay AID248 (DTP/NCI, 2004)
Toxic doses and inconclusive results are not listed. Rule as the data show it: active = T/C of 150% or more; inactive = T/C below 125%.

Tested on: L1210 leukemia ip in BDF1 mice, survival T/C
Experiment: NCI In Vivo Anticancer Drug Screen. Data for tumor model L1210 Leukemia (intraperitoneal) in B6D2F1 (BDF1) mice
Details: endpoint: mean survival time, higher = longer survival
In short: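 Ratio derived from survival: compound-dosed mice over vehicle-dosed mice, all bearing a transplantable tumor.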

[1] = dose: 50.0 mg/kg/injection, schedule: Q01DX009 (ip), vehicle: saline with Tween-80
[2] = dose: 100.0 mg/kg/injection, schedule: Q01DX009 (ip), vehicle: saline with Tween-80
[3] = dose: 100.0 mg/kg/injection, schedule: Q04DX002 (ip), vehicle: saline with Tween-80
[4] = dose: 200.0 mg/kg/injection, schedule: Q04DX002 (ip), vehicle: saline with Tween-80
[5] = dose: 400.0 mg/kg/injection, schedule: Q04DX002 (ip), vehicle: saline with Tween-80
[6] = dose: 100.0 mg/kg/injection, schedule: Q01DX009 (ip), vehicle: Klucel (hydroxypropylcellulose) (HPC)
[7] = dose: 200.0 mg/kg/injection, schedule: Q01DX009 (ip), vehicle: Klucel (hydroxypropylcellulose) (HPC)
[8] = dose: 400.0 mg/kg/injection, schedule: Q01DX009 (ip), vehicle: Klucel (hydroxypropylcellulose) (HPC)
[9] = dose: 100.0 mg/kg/injection, schedule: Q01DX009 (ip), vehicle: saline
[10] = dose: 200.0 mg/kg/injection, schedule: Q01DX009 (ip), vehicle: saline
[11] = dose: 100.0 mg/kg/injection, schedule: Q04DX003 (ip), vehicle: saline
[12] = dose: 200.0 mg/kg/injection, schedule: Q04DX003 (ip), vehicle: saline
[13] = dose: 400.0 mg/kg/injection, schedule: Q01DX009 (ip), vehicle: saline
[14] = dose: 400.0 mg/kg/injection, schedule: Q04DX003 (ip), vehicle: saline
[15] = dose: 100.0 mg/kg/injection, schedule: Q04DX003 (ip), vehicle: Klucel (hydroxypropylcellulose) (HPC)
[16] = dose: 200.0 mg/kg/injection, schedule: Q04DX003 (ip), vehicle: Klucel (hydroxypropylcellulose) (HPC)
[17] = dose: 400.0 mg/kg/injection, schedule: Q04DX003 (ip), vehicle: Klucel (hydroxypropylcellulose) (HPC)
[18] = dose: 100.0 mg/kg/injection, schedule: Q04DX003 (ip), vehicle: saline with Tween-80
[19] = dose: 200.0 mg/kg/injection, schedule: Q04DX003 (ip), vehicle: saline with Tween-80
[20] = dose: 100.0 mg/kg/injection, schedule: Q01DX001 (ip), vehicle: carboxymethylcellulose (CMC)
[21] = dose: 50.0 mg/kg/injection, schedule: Q04DX003 (ip), vehicle: saline

Measured: T/C

CC(=O)OCC(=O)[C@@]1(O)CC[C@H]2[C@@H]3CCC4=CC(=O)[C@H](C)C[C@]4(C)[C@H]3[C@@H](O)C[C@@]21C
inactive: dose: 50.0 mg/kg/injection, schedule: Q01DX001 (sc), vehicle: steriod suspending solution 111 % of control | dose: 100.0 mg/kg/injection, schedule: Q01DX001 (sc), vehicle: steriod suspending solution 102 % of control | dose: 100.0 mg/kg/injection, schedule: Q04DX003 (sc), vehicle: steriod suspending solution 100 % of control | dose: 200.0 mg/kg/injection, schedule: Q01DX001 (sc), vehicle: steriod suspending solution 102 % of control | dose: 200.0 mg/kg/injection, schedule: Q04DX003 (sc), vehicle: steriod suspending solution 105 % of control | dose: 400.0 mg/kg/injection, schedule: Q01DX001 (sc), vehicle: steriod suspending solution 110 % of control | dose: 400.0 mg/kg/injection, schedule: Q04DX003 (sc), vehicle: steriod suspending solution 107 % of control

CC12CCC(CC1)C2CO (stereo not drawn)
inactive: [1] 105 % of control | [2] 98 % of control

Cc1ccc(S(=O)(=O)N(c2cc([N+](=O)[O-])ccc2Br)S(=O)(=O)c2ccc(C)cc2)cc1
inactive: [3] 88 % of control | [4] 98 % of control | [5] 88 % of control

CCCCCCCCCCCCN (tested in a mixture with another compound)
inactive: dose: 87.5 mg/kg/injection, schedule: Q01DX001 (ip), vehicle: Klucel (hydroxypropylcellulose) (HPC) 93 % of control

COC(=O)c1ccccc1-n1c(-c2ccc([N+](=O)[O-])cc2)csc1=NC(=O)c1cccc([N+](=O)[O-])c1
inactive: [6] 91 % of control | dose: 100.0 mg/kg/injection, schedule: Q04DX002 (ip), vehicle: Klucel (hydroxypropylcellulose) (HPC) 92 % of control | [7] 91 % of control | dose: 200.0 mg/kg/injection, schedule: Q04DX002 (ip), vehicle: Klucel (hydroxypropylcellulose) (HPC) 95 % of control | [8] 88 % of control | dose: 400.0 mg/kg/injection, schedule: Q04DX002 (ip), vehicle: Klucel (hydroxypropylcellulose) (HPC) 100 % of control

CCOS(C)(=O)=O
inactive: dose: 50.0 mg/kg/injection, schedule: Q01DX009 (ip), vehicle: saline 98 % of control | [9] 101 % of control | dose: 100.0 mg/kg/injection, schedule: Q04DX003 (ip), vehicle: alcohol 102 % of control | [10] 104 % of control | dose: 200.0 mg/kg/injection, schedule: Q04DX003 (ip), vehicle: alcohol 102 % of control

C=CCOCCO
inactive: [9] 108 % of control | [11] 100 % of control | [10] 108 % of control | [12] 95 % of control | [13] 101 % of control | [14] 100 % of control

CC1(C)N=C(N)N=C(N)N1c1ccc(CCCCc2ccc(S(=O)(=O)F)cc2)c(Cl)c1
inactive: dose: 7.5 mg/kg/injection, schedule: Q01DX001 (ip), vehicle: saline 99 % of control | dose: 7.5 mg/kg/injection, schedule: Q04DX003 (ip), vehicle: saline 104 % of control | dose: 13.0 mg/kg/injection, schedule: Q01DX007 (ip), vehicle: saline with Tween-80 109 % of control | dose: 15.0 mg/kg/injection, schedule: Q01DX001 (ip), vehicle: saline 99 % of control | dose: 15.0 mg/kg/injection, schedule: Q04DX003 (ip), vehicle: saline 106 % of control | dose: 20.0 mg/kg/injection, schedule: Q01DX007 (ip), vehicle: saline with Tween-80 116 % of control | dose: 30.0 mg/kg/injection, schedule: Q01DX001 (ip), vehicle: saline 94 % of control | dose: 30.0 mg/kg/injection, schedule: Q01DX007 (ip), vehicle: saline with Tween-80 122 % of control | dose: 30.0 mg/kg/injection, schedule: Q04DX003 (ip), vehicle: saline 109 % of control | dose: 45.0 mg/kg/injection, schedule: Q01DX007 (ip), vehicle: saline with Tween-80 95 % of control

Cc1[nH]c(=O)[nH]c(=O)c1C
inactive: [6] 106 % of control | [15] 102 % of control | [7] 103 % of control | [16] 98 % of control | [8] 93 % of control | [17] 91 % of control

CCCC1OC1CCC (stereo not drawn)
inactive: [18] 109 % of control | [19] 97 % of control | dose: 400.0 mg/kg/injection, schedule: Q04DX003 (ip), vehicle: saline with Tween-80 91 % of control

O=C1c2cccc([N+](=O)[O-])c2C(=O)c2c1cccc2[N+](=O)[O-]
inactive: [3] 93 % of control | [4] 104 % of control | [5] 100 % of control

CCCC1C(CC)CC(CC)C(O)C1(CC)CO (stereo not drawn)
inactive: dose: 100.0 mg/kg/injection, schedule: Q01DX009 (ip), vehicle: other 98 % of control | dose: 200.0 mg/kg/injection, schedule: Q01DX009 (ip), vehicle: other 95 % of control | dose: 400.0 mg/kg/injection, schedule: Q01DX009 (ip), vehicle: other 87 % of control

N/N=C/C=N/Nc1cnccn1
inactive: [6] 106 % of control | [7] 86 % of control

OC1CCCC[CH]1[Hg][Cl] (stereo not drawn)
inactive: dose: 5.0 mg/kg/injection, schedule: Q01DX001 (ip), vehicle: saline 95 % of control

c1ccc2nc(NN=C3CCCCC3)ccc2c1
inactive: dose: 10.0 mg/kg/injection, schedule: Q01DX001 (ip), vehicle: saline 107 % of control | dose: 20.0 mg/kg/injection, schedule: Q01DX001 (ip), vehicle: saline 97 % of control | dose: 40.0 mg/kg/injection, schedule: Q01DX001 (ip), vehicle: saline 95 % of control

Cc1cc(OC(C)C(=O)O)c(Cl)cc1Cl (stereo not drawn)
inactive: dose: 50.0 mg/kg/injection, schedule: Q01DX001 (ip), vehicle: carboxymethylcellulose (CMC) 103 % of control | [20] 103 % of control

COc1cccc(CC(C)N)c1OC (stereo not drawn)
inactive: dose: 25.0 mg/kg/injection, schedule: Q04DX003 (ip), vehicle: saline 103 % of control | [21] 91 % of control | [11] 101 % of control

CC(=O)c1ccc(OC(=O)Oc2ccc(C(C)=O)cc2)cc1
inactive: [20] 93 % of control | dose: 200.0 mg/kg/injection, schedule: Q01DX001 (ip), vehicle: carboxymethylcellulose (CMC) 101 % of control | dose: 400.0 mg/kg/injection, schedule: Q01DX001 (ip), vehicle: carboxymethylcellulose (CMC) 93 % of control

COC(=O)CCCCCCCC(=O)OCC#CC#CCOC(=O)CCCCCCCC(=O)OC
inactive: [6] 95 % of control | [15] 107 % of control | [7] 90 % of control | [16] 94 % of control | [8] 95 % of control | [17] 91 % of control

O=C(O)C1(C(=O)O)CCOCC1
inactive: [21] 93 % of control | [9] 104 % of control | [11] 98 % of control | [10] 102 % of control | [12] 104 % of control | [13] 96 % of control | [14] 103 % of control

COC(=O)C1C(C(=O)OC)C2C3OC(=O)C(C2C(=O)OC)C1C3C (stereo not drawn)
inactive: dose: 100.0 mg/kg/injection, schedule: Q01DX001 (ip), vehicle: saline 103 % of control | [9] 100 % of control | dose: 200.0 mg/kg/injection, schedule: Q01DX001 (ip), vehicle: saline 98 % of control | [10] 103 % of control | dose: 400.0 mg/kg/injection, schedule: Q01DX001 (ip), vehicle: saline 101 % of control | [13] 87 % of control

c1ccc(C(Nc2ccnc3nc[nH]c23)c2ccccc2)cc1
inactive: dose: 25.0 mg/kg/injection, schedule: Q01DX001 (ip), vehicle: saline with Tween-80 107 % of control | dose: 50.0 mg/kg/injection, schedule: Q01DX001 (ip), vehicle: saline with Tween-80 102 % of control | [1] 96 % of control | dose: 50.0 mg/kg/injection, schedule: Q04DX003 (ip), vehicle: saline with Tween-80 95 % of control | dose: 75.0 mg/kg/injection, schedule: Q01DX001 (ip), vehicle: saline with Tween-80 101 % of control | dose: 100.0 mg/kg/injection, schedule: Q01DX001 (ip), vehicle: saline with Tween-80 94 % of control | [2] 107 % of control | [18] 91 % of control | dose: 200.0 mg/kg/injection, schedule: Q01DX001 (ip), vehicle: saline with Tween-80 93 % of control | [19] 92 % of control
